# Experimental data from patent publication US20250115598A1 (Anaxis Pharma Pty Ltd, priority 2021, published 2025).
# Read-outs that look alike come from different tables or passages of the source.
# What was measured:
# human RIPK1 = human RIPK1 (Homo sapiens (Human), UniProt Q13546); test: KINOMEscan binding assay, human RIPK1; conditions: Table 21
# In short: (§1)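 Tagged kinase + immobilized ligand beads + compound; eluted kinase quantified by qPCR. Kinase source: T7 phage lysate (BL21-derived E. coli, 32 °C) or HEK-293 with DNA tag. 11-pt 3-fold series, 1% DMSO, top 30,000 nM (most). Hill fit, slope −1 → Kd.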
# [1] = tested on: Immortalised Mouse Dermal Fibroblasts (MDFs); test: Cellular assay: inhibition of TSI induced necroptosis, CellTitre-Glo viability; conditions: Mus musculus, Fibroblast, MDF, 3 hours TSI cocktail, read-out: Inhibition of TSI-induced necroptosis (IC50 cell-based assay) in MDF
# Experimental: Cellular Assay: Screening Compounds for Inhibition of TSI Induced Necroptosis in, 384 Well Plate Format.
# • Cell Line ID: Immortalised Mouse Dermal Fibroblasts (MDFs). • Cell Concentration (cells/well): Final cell density is 2200 cells per well. • Cell growth medium: DMEM medium+7.4% Fetal Bovine Serum (FBS). Cells are cultured in Corning 150 cm^2 tissue culture flasks with vented caps at 37° C./10% CO2. • Incubation: Plates were incubated for 30 minutes following addition of compounds and then 3 hours incubation with death stimuli (TSI cocktail) at 37° C./10% CO2 in a humidified incubator. • Compound concentration: 36 μM starting concentration, 1:3 dilution, 10 point • DMSO final concentration (% v/v): 0.3%. Compounds in TSI Cocktail (T: TNF; S: Smac Mimetic; I: IDN-6556) and their Final Concentrations: • rhTNF (100 ng/ml) • Compound a (500 nM)—Smac Mimetic, Tetralogic and SYNthesis Med Chem • IDN-6556 (10 μM)—Selleckchem (S7775)
# The cellular assay was carried out according to the following steps: • 1. Each well was prepared by sequential addition of: • a. 40 μL of cell suspension (5.5×10^4 cells/mL) was added to each well to provide a final cell concentration of 2,200 cells per well. • b. After 24 hours, DMSO (control; columns 1-2 and 23-24) or compound in DMSO—addition was performed using acoustic transfer of nL volumes of stock compound to give final test concentrations of 36, 12, 4, 1.3, 0.44, 0.148, 0.049, 0.016, 0.005 and 0.002 μM. All wells were backfilled with DMSO to a final total volume in the well of 100 nL. • c. Following compound/DMSO addition in step (b), Plates were incubated for 30 minutes at 37° C./10% CO2 in a humidified incubator and then 10 μL of 5×TSI cocktail (except to positive controls; columns 2 and 24) was added to each well. • 2. After 3 hours, plate was removed from the 37° C. incubator and equilibrated to room temperature for 15 minutes. • 3. 15 μL of room temperatured CellTitre-Glo2™ (Promega™) was added to each well. • 4. Shook plates for 2 minutes (˜600 rpm) and incubated at room temperature for 15 minutes to allow signal to stabilise. • 5. Read luminescence readout on a plate reader.
# Percent viability was calculated for each compound according to equation (2):
# [formula] • Wherein RawData is the readout of any cell containing a compound of the invention.
# TA is the total activity provided by the luminescence readout from DMSO only wells (columns 2 and 24)=100% viability.
# NSA is the non-specific activity provided by DMSO+TSI wells (columns 1 and 23)=0% viability • Curve fitting: 10-point titration curves are fitted with the 4-parameter logistic nonlinear regression model and the IC50 reported is the inflection point of the curve • Analysis: Data was loaded into Dotmatics™ and visualised using the Tibco@ • Spotfire™ software. 10 point titration curves were fitted with the 4 parameter logistic nonlinear regression model and the IC50 reported reflect the inflection point of the curve for curve fitting.
# Assay involving the TSI cocktail (T: TNF; S: Smac mimetic; I: IDN-6556): TSI treatment ensures that cells specifically undergo necroptotic cell death. TNF activates the TNF receptor, Smac mimetic directs the signal away from proinflammatory signaling and toward the RIPK1/RIPK3-mediated cell death pathways, and IDN-6556 (Caspase inhibitor) ensures that the apoptotic response is blocked leaving only the programmed necrosis response. The compounds' activity (solution in DMSO) tested in this TSI-induced assay was evaluated by determining the number of viable cells in culture by measuring the amount of ATP present as measured by CelltiterGlo.
# human MLKL (full length) = human MLKL (full length) (Homo sapiens (Human), UniProt Q8NB16); test: KINOMEscan binding assay, human MLKL (full length)
# Sequence of human MLKL (full length) (Q8NB16 whole entry): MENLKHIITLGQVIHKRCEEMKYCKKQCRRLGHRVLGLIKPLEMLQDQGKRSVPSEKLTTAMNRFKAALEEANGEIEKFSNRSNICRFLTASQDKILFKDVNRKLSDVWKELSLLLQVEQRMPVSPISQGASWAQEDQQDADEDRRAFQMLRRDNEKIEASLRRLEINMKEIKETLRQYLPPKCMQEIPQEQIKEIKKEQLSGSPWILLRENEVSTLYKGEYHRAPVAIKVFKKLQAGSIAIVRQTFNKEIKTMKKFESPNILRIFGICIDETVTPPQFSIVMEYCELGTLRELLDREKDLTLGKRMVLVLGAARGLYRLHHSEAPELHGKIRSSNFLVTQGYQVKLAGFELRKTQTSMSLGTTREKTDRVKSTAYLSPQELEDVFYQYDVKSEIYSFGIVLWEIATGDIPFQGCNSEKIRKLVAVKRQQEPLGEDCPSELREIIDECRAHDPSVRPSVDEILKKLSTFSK
# In short: as §1
# human RIPK3 = human RIPK3 (Homo sapiens (Human), UniProt Q9Y572); test: KINOMEscan binding assay, human RIPK3; conditions: Table 21
# Sequence of human RIPK3 (Q9Y572 whole entry): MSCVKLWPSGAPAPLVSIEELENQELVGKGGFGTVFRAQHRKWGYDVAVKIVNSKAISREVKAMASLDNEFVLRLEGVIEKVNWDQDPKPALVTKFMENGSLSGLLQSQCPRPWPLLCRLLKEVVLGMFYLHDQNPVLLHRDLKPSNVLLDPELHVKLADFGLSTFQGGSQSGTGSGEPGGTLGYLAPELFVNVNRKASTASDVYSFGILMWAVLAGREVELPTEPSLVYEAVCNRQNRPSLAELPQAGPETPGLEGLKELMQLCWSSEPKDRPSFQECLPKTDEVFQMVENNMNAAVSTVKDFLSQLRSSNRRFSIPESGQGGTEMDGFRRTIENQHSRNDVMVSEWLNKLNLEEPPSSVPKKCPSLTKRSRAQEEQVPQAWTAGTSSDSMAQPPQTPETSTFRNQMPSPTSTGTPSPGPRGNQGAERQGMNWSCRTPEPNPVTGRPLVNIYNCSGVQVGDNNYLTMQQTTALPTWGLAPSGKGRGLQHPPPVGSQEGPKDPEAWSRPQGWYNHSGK
# In short: as §1
# [2] = KINOMEscan, Table 21, read-out: Human MLKL (full-length) (KD)
# [3] = hMLKL, Table 25, read-out: MLKL (KD)
# Sequence of human RIPK1 (Q13546 whole entry): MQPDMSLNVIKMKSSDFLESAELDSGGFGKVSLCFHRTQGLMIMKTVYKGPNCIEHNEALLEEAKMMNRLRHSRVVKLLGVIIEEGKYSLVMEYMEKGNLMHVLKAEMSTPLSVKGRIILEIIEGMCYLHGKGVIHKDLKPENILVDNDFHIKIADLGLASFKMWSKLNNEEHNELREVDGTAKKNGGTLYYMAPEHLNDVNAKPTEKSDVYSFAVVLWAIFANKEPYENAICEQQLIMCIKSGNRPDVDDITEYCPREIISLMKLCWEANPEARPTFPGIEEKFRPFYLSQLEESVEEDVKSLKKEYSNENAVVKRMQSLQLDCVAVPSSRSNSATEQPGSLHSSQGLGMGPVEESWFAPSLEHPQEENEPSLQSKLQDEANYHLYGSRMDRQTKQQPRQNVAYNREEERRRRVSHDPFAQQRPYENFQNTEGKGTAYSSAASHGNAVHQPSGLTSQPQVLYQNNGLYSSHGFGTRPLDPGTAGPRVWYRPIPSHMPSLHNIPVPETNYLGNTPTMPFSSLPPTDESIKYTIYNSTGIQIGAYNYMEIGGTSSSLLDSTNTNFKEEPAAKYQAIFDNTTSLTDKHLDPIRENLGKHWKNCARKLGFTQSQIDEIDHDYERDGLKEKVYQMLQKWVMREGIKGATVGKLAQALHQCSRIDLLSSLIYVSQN
SMILES,Kd (human RIPK1) [µM],IC50 ([1]; Table 24) [µM],Kd (human MLKL (full length); [2]) [µM],Kd (human RIPK3) [µM],IC50 ([1]; Table 27) [µM],Kd (human MLKL (full length); [3]) [µM]
"C[C@H](Oc1cc(-c2nn(C)c3c(-c4cnn(C5CCC(N(C)C)C5)c4)cnc(N)c23)ccc1NS(=O)(=O)C(F)F)c1ccc(F)cc1 (stereo partly drawn) [Compound 168, N-(4-(4-amino-7-(1-(3-(dimethylamino)cyclopentyl)-1H-pyrazol-4-yl)-1-methyl-1H-pyrazolo[4,3-c]pyridin-3-yl)-2-((S)-1-(4-fluorophenyl)ethoxy)phenyl)-1,1-difluoromethanesulfonamide]",> 10,< 1,< 0.001,> 10,–,–
"C[C@H](Oc1cc(-c2nn(C)c3c(-c4cnn(C5CC6CCC(C5)N6CC(F)(F)F)c4)cnc(N)c23)ccc1NS(=O)(=O)C(F)F)c1ccc(F)cc1 (stereo partly drawn) [Compound 153, N-(4-(4-amino-1-methyl-7-(1-(8-(2,2,2-trifluoroethyl)-8-azabicyclo[3.2.1]octan-3-yl)-1H-pyrazol-4-yl)-1H-pyrazolo[4,3-c]pyridin-3-yl)-2-((S)-1-(4-fluorophenyl)ethoxy)phenyl)-1,1-difluoromethanesulfonamide]",> 10,< 1,–,> 10,–,–
"CC(=O)N1CCC(n2cc(-c3cnc(N)c4c(-c5ccc(NS(=O)(=O)C(F)F)c(O[C@@H](C)c6ccc(F)cc6)c5)nn(C)c34)cn2)CC1 [Compound 109, (S)—N-(4-(7-(1-(1-acetylpiperidin-4-yl)-1H-pyrazol-4-yl)-4-amino-1-methyl-1H-pyrazolo[4,3-c]pyridin-3-yl)-2-(1-(4-fluorophenyl)ethoxy)phenyl)-1,1-difluoromethanesulfonamide]",> 10,< 1,< 0.001,> 10,–,–
"C[C@H](Oc1cc(-c2nn(C)c3c(C#CC4CCN(C)CC4)cnc(N)c23)ccc1NS(=O)(=O)C(F)F)c1ccc(F)cc1 [Compound 80, (S)—N-(4-(4-amino-1-methyl-7-((1-methylpiperidin-4-yl)ethynyl)-1H-pyrazolo[4,3-c]pyridin-3-yl)-2-(1-(4-fluorophenyl)ethoxy)phenyl)-1,1-difluoromethanesulfonamide]",> 10,< 1,< 0.001,> 10,–,–
"CC1C(n2cc(-c3cnc(N)c4c(-c5ccc(NS(=O)(=O)C(F)F)c(O[C@@H](C)c6ccc(F)cc6)c5)nn(C)c34)cn2)CN1C (stereo partly drawn) [Compound 147, N-(4-(4-amino-7-(1-(1,2-dimethylazetidin-3-yl)-1H-pyrazol-4-yl)-1-methyl-1H-pyrazolo[4,3-c]pyridin-3-yl)-2-((S)-1-(4-fluorophenyl)ethoxy)phenyl)-1,1-difluoromethanesulfonamide]",> 10,< 1,–,> 10,–,–
"C[C@H](Oc1cc(-c2nn(C)c3c(-c4cnn(C5CCN(C)C(C(F)(F)F)C5)c4)cnc(N)c23)ccc1NS(=O)(=O)C(F)F)c1ccc(F)cc1 (stereo partly drawn) [Compound 148, N-(4-(4-amino-1-methyl-7-(1-(1-methyl-2-(trifluoromethyl)piperidin-4-yl)-1H-pyrazol-4-yl)-1H-pyrazolo[4,3-c]pyridin-3-yl)-2-((S)-1-(4-fluorophenyl)eth-oxy)phenyl)-1,1-difluoromethane-sulfonamide]",> 10,< 1,–,> 10,–,–
"C[C@H](Oc1cc(-c2nn(C)c3c(-c4cnn(C5CCN(C(=O)c6ccc(C(=O)NC7CCC(=O)NC7=O)cc6)CC5)c4)cnc(N)c23)ccc1NS(=O)(=O)C(F)F)c1ccc(F)cc1 (stereo partly drawn) [Compound 1086, 4-[4-(4-{4-amino-3-[4-(difluoromethanesulfonamido)-3-[(1S)-1-(4-fluorophenyl)ethoxy]phenyl]-1-methyl-1H-pyrazolo[4,3-c]pyridin-7-yl}-1H-pyrazol-1-yl)piperidine-1-carbonyl]-N-(2,6-dioxopiperidin-3-yl)benzamide]",–,–,–,–,1 to 10,< 0.01
"Cc1ncsc1-c1ccc(CNC(=O)[C@@H]2C[C@@H](O)CN2C(=O)[C@@H](NC(=O)CCCCCn2cc(-c3cnc(N)c4c(-c5ccc(NS(=O)(=O)C(F)F)c(O[C@@H](C)c6ccc(F)cc6)c5)nn(C)c34)cn2)C(C)(C)C)cc1 [Compound 1066, (2S,4R)-1-[(2S)-2-[6-(4-{4-amino-3-[4-(difluoromethanesulfonamido)-3-[(1S)-1-(4-fluorophenyl)ethoxy]phenyl]-1-methyl-1H-pyrazolo[4,3-c]pyridin-7-yl}-1H-pyrazol-1-yl)hexanamido]-3,3-dimethylbutanoyl]-4-hydroxy-N-{[4-(4-methyl-1,3-thiazol-5-yl)phenyl]methyl}pyrrolidine-2-carboxamide]",–,–,–,–,1 to 10,< 0.01
"C[C@H](Oc1cc(-c2nn(C)c3c(-c4cnn(C5CCC(C)(C)N(C)C5)c4)cnc(N)c23)ccc1NS(=O)(=O)C(F)F)c1ccc(F)cc1 (some centres unmarked) [Compound 104, N-(4-{4-amino-1-methyl-7-[1-(1,6,6-trimethylpiperidin-3-yl)-1H-pyrazol-4-yl]-1H-pyrazolo[4,3-c]pyridin-3-yl}-2-[(1 S)-1-(4-fluorophenyl)ethoxy]phenyl)-1,1-difluoromethanesulfonamide]",> 10,< 1,< 0.001,> 10,–,–
